The test system of assay [1] is Plasmodium falciparum. Kind of assay: Inhibition of Plasmodium falciparum. The format is functional, organism-based.
Assay [2] has as its target T1, Plasmepsin II (Plasmodium falciparum, UniProt P46925). Kind of assay: In vitro concentration required for inhibition of Plasmodium falciparum plasmepsin-2.
Assay [3] concerns Plasmodium falciparum. Put plainly: In vitro inhibitory activity against chloroquine-sensitive Plasmodium falciparum D10 infected human red blood cells. The format is functional, organism-based.
The subject of assay [4] is Plasmodium falciparum. Kind of assay: In vitro inhibitory activity against chloroquine-resistant Plasmodium falciparum W-2 infected human erythrocytes. The format is functional, organism-based.
The test system of assay [5] is Plasmodium falciparum. Kind of assay: In vitro inhibitory activity against chloroquine-sensitive Plasmodium falciparum D-10 infected human red blood cells at 9 uM. Format: functional.
The subject of assay [6] is Plasmodium falciparum. Kind of assay: In vitro inhibitory activity against chloroquine-resistant Plasmodium falciparum W2 infected human erythrocytes at 9 uM. The format is functional.
For assay [7], the target named is T1, Plasmepsin II. Kind of assay: In vitro binding affinity towards Plasmodium falciparum plasmepsin-2.

Consider 9 compounds from ChEMBL document CHEMBL1137928, “Plasmepsin II inhibition and antiplasmodial activity of Primaquine-Statine 'double-drugs'” (Bioorg Med Chem Lett, 2004).

Usually IC50 stands for the midpoint of a concentration-inhibition curve. Low values mean inhibition by little substance, high ones a need for much substance. By inhibition is commonly meant the relative decrease from the control value, in per cent. Low readings indicate a weak effect, high ones a strong effect. Usually Ki stands for the equilibrium dissociation constant of an inhibitor or competing ligand from its target. Read a low Ki as tighter binding.

T1 sequence (P46925 whole entry): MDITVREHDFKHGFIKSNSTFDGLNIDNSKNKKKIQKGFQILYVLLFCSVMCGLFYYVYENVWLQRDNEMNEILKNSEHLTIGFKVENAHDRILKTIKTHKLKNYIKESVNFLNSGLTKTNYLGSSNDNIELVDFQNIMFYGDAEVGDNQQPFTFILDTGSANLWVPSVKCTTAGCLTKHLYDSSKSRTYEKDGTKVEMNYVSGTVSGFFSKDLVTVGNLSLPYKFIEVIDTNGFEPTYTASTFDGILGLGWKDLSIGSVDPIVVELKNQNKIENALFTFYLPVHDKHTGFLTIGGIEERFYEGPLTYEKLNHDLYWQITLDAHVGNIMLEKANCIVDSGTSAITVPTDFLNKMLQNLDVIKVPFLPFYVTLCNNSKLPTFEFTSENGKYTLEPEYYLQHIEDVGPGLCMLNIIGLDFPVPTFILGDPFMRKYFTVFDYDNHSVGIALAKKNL

On to `COc1cc(NC(C)CCCNC(=O)[C@@H](N)CCCCN)c2ncccc2c1` (stereo partly specified), for which the IC50 is approximately 20 µM in the assay on Plasmodium falciparum [1] and more than 1 µM against Plasmepsin II [2].

For the compound `CCCCNC(=O)C[C@H](O)[C@H](CC(C)C)NC(=O)[C@@H](NC(=O)c1ccc2cc(C(=O)OCCCC(=O)N[C@H](CC(C)C)C(=O)N[C@H](CCCCN)C(=O)NCCCC(C)Nc3cc(OC)cc4cccnc34)ccc2c1)[C@H](C)CC` (stereo partly specified), the IC50 with Plasmodium falciparum [3] amounted to 3.3 µM; on Plasmepsin II [2] it was 0.0096 µM; in the assay with Plasmodium falciparum [4] it was 1 µM.

Regarding `CCCCNC(=O)C[C@H](O)[C@H](CC(C)C)NC(=O)[C@@H](NC(=O)c1ccc2cc(C(=O)N[C@H](CC(C)C)C(=O)N[C@H](CCCCN)C(=O)NCCCC(C)Nc3cc(OC)cc4cccnc34)ccc2c1)[C@H](C)CC` (stereo partly specified), the figures for the IC50 with Plasmodium falciparum [3], against Plasmepsin II [2] and in the assay on Plasmodium falciparum [4] were 6.2 µM, 0.00151 µM and 4.7 µM, respectively.

Turning to `CCCCNC(=O)C[C@H](O)[C@H](CC(C)C)NC(=O)[C@@H](NC(=O)c1ccc(Oc2ccc(C(=O)N[C@H](CC(C)C)C(=O)N[C@H](CCCCN)C(=O)NCCCC(C)Nc3cc(OC)cc4cccnc34)cc2)cc1)[C@H](C)CC` (stereo partly specified), the figures for the IC50 in the assay on Plasmodium falciparum [3], on Plasmepsin II [2] and in the assay with Plasmodium falciparum [4] were 0.4 µM, 0.00059 µM and 0.7 µM, respectively.

As for `CCCCNC(=O)C[C@H](O)[C@H](CC(C)C)NC(=O)[C@@H](NC(=O)CCC(=O)N[C@@H](CC(C)C)C(=O)N[C@@H](CCCCN)C(=O)NCCCC(C)Nc1cc(OC)cc2cccnc12)[C@H](C)CC` (stereo partly specified), the inhibition at 9 µM in the assay on Plasmodium falciparum [5] is 20%; in the assay on Plasmodium falciparum [6] it was 40%. For the same compound, the IC50 against Plasmepsin II [2] worked out at 0.396 µM.

In the case of `CCCCNC(=O)C[C@H](O)[C@H](CC(C)C)NC(=O)[C@@H](NC(=O)Cc1ccc(CC(=O)N[C@@H](CC(C)C)C(=O)N[C@@H](CCCCN)C(=O)NCCCC(C)Nc2cc(OC)cc3cccnc23)cc1)[C@H](C)CC` (stereo partly specified), the values for the IC50 in the assay with Plasmodium falciparum [3], on Plasmepsin II [2] and with Plasmodium falciparum [4] were 5.5 µM, 0.135 µM and 4.2 µM, respectively.

On to `CCCCNC(=O)C[C@H](O)[C@H](CC(C)C)NC(=O)[C@@H](NC(=O)COc1ccc2ccccc2c1)[C@@H](C)CC`, for which the affinity on Plasmepsin II [7], expressed as Ki, was 0.18 µM.

Consider `CCCCNC(=O)C[C@H](O)[C@H](Cc1ccccc1)NC(=O)[C@@H](NC(=O)COc1ccc2ccccc2c1)[C@@H](C)CC`, for which affinity at Plasmepsin II [7] was put at a Ki of 0.11 µM.

Take `CCCCNC(=O)C[C@H](O)[C@H](CC(C)C)NC(=O)[C@@H](NC(=O)c1ccc(Oc2ccc(C(=O)N[C@@H](CC(C)C)C(=O)O)cc2)cc1)C(C)CC` (stereo partly specified): the IC50 is approximately 17 µM with Plasmodium falciparum [1] and 0.123 µM against Plasmepsin II [2].
